Results on 16 compounds are retold here after US9115117B2, “Substituted piperidine compounds and their use as orexin receptor modulators” (JANSSEN PHARMACEUTICA NV, priority 2013, dated 2015).

One test concerns the target human orexin 2 receptor (Homo sapiens (Human), UniProt O43614). As to the kind of experiment: Human orexin 2 receptor radioligand binding ([3H]-EMPA). To be noted: HEK293 stably expressing human orexin 2 receptor; [3H]-EMPA; apparent Ki; read-out: hOX2 Ki. Here is the method: After centrifugation (2K×G, 5 min at 4° C.), the supernatant was aspirated and the pellets frozen and stored at −80° C. […] Each cell pellet from a 15 cm plate was resuspended in 10 mL, stored on ice, and homogenized for 45 sec just prior to addition to the reactions. Competition binding experiments in 96 well polypropylene plates were performed using [^3H]-EMPA (Moraveck Corporation, specific activity=29.6 Ci/mmol), diluted to a 5 nM concentration in PBS (2 nM final concentration). […] The final concentration of DMSO in the reactions is equal to or less than 0.1%. Total and nonspecific binding was determined in the absence and presence of […]. The total volume of each reaction is 200 μL (20 μL of diluted compounds, 80 μL of [^3H]-EMPA diluted in PBS and 100 μL of the cell suspension).
The plates were washed 3 times by aspirating 30 ml PBS through the plates. Plates were dried in 55° C. oven for 60 min, scintillation fluid was added, and the radioactivity was counted on a Topcount (Packard).

The target in a further test is human orexin 1 receptor (Homo sapiens, UniProt O43613). In words: Human orexin 1 receptor radioligand binding. To be noted: CHO cells stably expressing human orexin 1 receptor; apparent Ki; read-out: hOX1 Ki. Here is the method:
The in vitro affinity of the compounds of the invention for the rat/human orexin 1 and human orexin 2 receptors was determined by competitive radioligand binding using [^3H](1-(5-(2-fluoro-phenyl)-2-methyl-thiazol-4-yl)-1-((S)-2-(5-phenyl-(1,3,4)oxadiazol-2-ylmethyl)-pyrrolidin-1-yl)-methanone)(Langmead et al., 2004) and [^3H]EMPA (n-ethyl-2[96-methoxy-pyridin-3-yl)-(toluene-2-sulfonyl)-amino]-N-pyridin-3-ylmethyl acetamide), respectively (Langmead et al., 2004, British Journal of Pharmacology 141:340-346; Malherbe et al., 2004, British Journal of Pharmacology 156:1326-41).
Human Embryonic Kidney 293 cells (HEK293) stably expressing rat orexin 1 receptor (Genebank accession number NM_001525) or Chinese ovary cells (CHO) stably expressing human orexin 1 receptor (Genebank accession number NM_001526) were grown to confluency in DMEM (Hyclone, cat #SH30022), 10% FBS, 1× Pen/Strep, 1× sodium pyruvate, 10 mM HEPES, 600 µg/mL G418 and DMEM/F12 (Gibco, Cat #11039), 10% FBS, 1× Pen/Strep, 600 µg/mL G418 media, respectively on 150 cm^2 tissue culture plates, washed with 5 mM EDTA in PBS (HyClone Dulbecco's Phoshpate Buffered Saline 1× with Calcium and Magnesium, Cat #SH30264.01, hereafter referred to simply as PBS) and scraped into 50 ml tubes. After centrifugation (2K×G, 5 min at 4° C.), the supernatant was aspirated and the pellets frozen and stored at −80° C. Cells were resuspended in PBS in the presence of 1 tablet of protease inhibitor cocktail (Roche, Cat. #11836145001) per 50 mL. Each cell pellet from a 15 cm plate was resuspended in 10 mL, stored on ice, and homogenized for 45 sec prior to addition to the reactions. Competition binding experiments in 96 well polypropylene plates were performed using [^3H]-(1-(5-(2-fluoro-phenyl)-2-methyl-thiazol-4-yl)-1-((S)-2-(5-phenyl-(1,3,4)oxadiazol-2-ylmethyl)-pyrrolidin-1-yl)-methanone) (Moraveck Corporation, specific activity=35.3 Ci/mmol), diluted to a 10 nM concentration in PBS (4 nM final). […] The final concentration of DMSO in the reactions is equal to or less than 0.1%. Total and nonspecific binding was determined in the absence and presence of 10 μM almorexant. The total volume of each reaction is 200 μL (20 μL of diluted compounds, 80 μL of [3H]-(1-(5-(2-fluoro-phenyl)-2-methyl-thiazol-4-yl)-1-((S)-2-(5-phenyl-(1,3,4)oxadiazol-2-ylmethyl)-pyrrolidin-1-yl)-methanone) diluted in PBS and 100 μL of the cell suspension). Reactions were run for 60 min at room temperature and terminated by filtration through GF/C filter plates (PerkinElmer, Cat. #6005174) presoaked in 0.3% polyethylenimine using the cell harvester (PerkinElmer Filtermate). The plates were washed 3 times by aspirating 30 ml PBS through the plates. Plates were dried in 55° C. oven for 60 min, scintillation fluid was added, and the radioactivity was counted on a Topcount (Packard).

In the next test the target is rat orexin 1 receptor (Rattus norvegicus, UniProt P56718). As to the kind of experiment: Rat orexin 1 receptor radioligand binding. To be noted: HEK293 cells stably expressing rat orexin 1 receptor; apparent Ki; read-out: rOX1 Ki. As for the experimental part: After centrifugation (2K×G, 5 min at 4° C.), the supernatant was aspirated and the pellets frozen and stored at −80° C. […] Each cell pellet from a 15 cm plate was resuspended in 10 mL, stored on ice, and homogenized for 45 sec prior to addition to the reactions. Competition binding experiments in 96 well polypropylene plates were performed using [^3H]-(1-(5-(2-fluoro-phenyl)-2-methyl-thiazol-4-yl)-1-((S)-2-(5-phenyl-(1,3,4)oxadiazol-2-ylmethyl)-pyrrolidin-1-yl)-methanone) (Moraveck Corporation, specific activity=35.3 Ci/mmol), diluted to a 10 nM concentration in PBS (4 nM final). […] The final concentration of DMSO in the reactions is equal to or less than 0.1%. Total and nonspecific binding was determined in the absence and presence of 10 μM almorexant. The total volume of each reaction is 200 μL (20 μL of diluted compounds, 80 μL of [3H]-(1-(5-(2-fluoro-phenyl)-2-methyl-thiazol-4-yl)-1-((S)-2-(5-phenyl-(1,3,4)oxadiazol-2-ylmethyl)-pyrrolidin-1-yl)-methanone) diluted in PBS and 100 μL of the cell suspension). […] The plates were washed 3 times by aspirating 30 ml PBS through the plates. Plates were dried in 55° C. oven for 60 min, scintillation fluid was added, and the radioactivity was counted on a Topcount (Packard).

Where a name gives a salt, the structure may show the parent alone.

Chain of human orexin 2 receptor (O43614 whole entry): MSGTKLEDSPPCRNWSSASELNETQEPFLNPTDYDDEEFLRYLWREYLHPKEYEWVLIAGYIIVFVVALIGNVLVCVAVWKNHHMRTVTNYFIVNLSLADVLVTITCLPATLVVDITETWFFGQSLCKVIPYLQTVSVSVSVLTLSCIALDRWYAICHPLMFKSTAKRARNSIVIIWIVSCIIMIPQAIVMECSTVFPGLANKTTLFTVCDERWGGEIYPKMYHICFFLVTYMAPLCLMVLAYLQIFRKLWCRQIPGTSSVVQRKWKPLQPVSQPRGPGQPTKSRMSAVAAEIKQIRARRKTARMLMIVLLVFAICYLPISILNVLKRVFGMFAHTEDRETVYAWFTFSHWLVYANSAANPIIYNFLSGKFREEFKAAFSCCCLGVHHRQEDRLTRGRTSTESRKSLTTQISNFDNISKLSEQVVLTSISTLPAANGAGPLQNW

As to `Cc1ccc(-n2nccn2)c(C(=O)N2CCC[C@@H](Nc3cc(C)nc(C(F)(F)F)n3)[C@@H]2C)c1` (racemic) [Example 8, (±)-trans-(5-methyl-2-(2H-1,2,3-triazol-2-yl)phenyl)(2-methyl-3-((6-methyl-2-(trifluoromethyl)pyrimidin-4-yl)amino)piperidin-1-yl)methanone], the values for the Ki at human orexin 2 receptor and at human orexin 1 receptor were 587 nM and 462 nM, respectively.

Regarding `C[C@H]1[C@H](Nc2ncc(C(F)(F)F)cn2)CCCN1C(=O)c1ccccc1-n1nccn1` (racemic) [Example 35, (±)-trans-(2-(2H-1,2,3-triazol-2-yl)phenyl)(2-methyl-3-((5-(trifluoromethyl)pyrimidin-2-yl)amino)piperidin-1-yl)methanone], on human orexin 1 receptor, the Ki turned out to be 29 nM.

For the compound `Cc1ccc(-c2ncccn2)c(C(=O)N2CCC[C@@H](Nc3ccc(C(F)(F)F)cn3)[C@@H]2C)n1` (racemic) [Example 23, (±)-trans-(2-methyl-3-((5-(trifluoromethyl)pyridin-2-yl)amino)piperidin-1-yl)(6-methyl-3-(pyrimidin-2-yl)pyridin-2-yl)methanone hydrochloride], the Ki stood at 208 nM on human orexin 2 receptor and 23 nM at human orexin 1 receptor.

With `Cc1cc(C)nc(N[C@@H]2CCCN(C(=O)c3ccccc3-n3nccn3)[C@H]2C)n1` (racemic) [Example 4, (±)-trans-(2-(2H-1,2,3-triazol-2-yl)phenyl)(3-((4,6-dimethylpyrimidin-2-yl)amino)-2-methylpiperidin-1-yl)methanone], the Ki was determined as 40 nM at human orexin 2 receptor and 78 nM at human orexin 1 receptor.

As to `Cc1ccc(C(=O)N2CCC[C@@H](Nc3nccc(C(F)(F)F)n3)[C@@H]2C)c(-n2ccnn2)n1` (racemic) [Example 11, (±)-trans-(6-methyl-2-(1H-1,2,3-triazol-1-yl)pyridin-3-yl)(2-methyl-3-((4-(trifluoromethyl)pyrimidin-2-yl)amino)piperidin-1-yl)methanone], the Ki on human orexin 1 receptor amounted to 9000 nM.

Consider `Cc1cc(N[C@@H]2CCCN(C(=O)c3cc(F)ccc3-c3ncccn3)[C@H]2C)nc(C(F)(F)F)n1` (racemic) [Example 9, (±)-trans-(5-fluoro-2-(pyrimidin-2-yl)phenyl)(2-methyl-3-((6-methyl-2-(trifluoromethyl)pyrimidin-4-yl)amino)piperidin-1-yl)methanone], for which the Ki stood at 2050 nM at human orexin 2 receptor and 6710 nM on human orexin 1 receptor.

Consider `COc1c(F)cccc1C(=O)N1CCC[C@@H](Nc2cnc3ccccc3n2)[C@@H]1C` (racemic) [Example 50, (±)-trans-(3-fluoro-2-methoxyphenyl)(2-methyl-3-(quinoxalin-2-ylamino)piperidin-1-yl)methanone], for which the Ki at rat orexin 1 receptor was 396 nM; at human orexin 2 receptor, 353 nM.

Regarding `Cc1cc(C)nc(N[C@@H]2CCCN(C(=O)c3c(F)cccc3-n3nccn3)[C@H]2C)n1` (racemic) [Example 3, (±)-trans-(3-((4,6-dimethylpyrimidin-2-yl)amino)-2-methylpiperidin-1-yl)(2-fluoro-6-(2H-1,2,3-triazol-2-yl)phenyl)methanone], the Ki at human orexin 2 receptor is 260 nM; on human orexin 1 receptor, 1060 nM.

For the compound `Cc1cc(C)nc(N[C@@H]2CCCN(C(=O)c3ccc(F)cc3-n3nccn3)[C@H]2C)n1` (racemic) [Example 1, (±)-trans-(3-((4,6-dimethylpyrimidin-2-yl)amino)-2-methylpiperidin-1-yl)(4-fluoro-2-(2H-1,2,3-triazol-2-yl)phenyl)methanone], the values for the Ki at human orexin 2 receptor and at human orexin 1 receptor were 290 nM and 1030 nM, respectively.

With `Cc1ccc(C(=O)N2CCC[C@H](Nc3ccc(C(F)(F)F)cn3)[C@H]2C)c(-n2nccn2)c1` [Example 15, (4-methyl-2-(2H-1,2,3-triazol-2-yl)phenyl)((2R,3S)-2-methyl-3-((5-(trifluoromethyl)pyridin-2-yl)amino)piperidin-1-yl)methanone], the figures for the Ki at rat orexin 1 receptor and at human orexin 2 receptor were 8200 nM and > 10000 nM, respectively.

Consider `COc1c(F)cccc1C(=O)N1CCC[C@@H](Nc2ccc(C(F)(F)F)cn2)[C@H]1C` (racemic) [Example 54, (±)-cis-(3-fluoro-2-methoxyphenyl)(2-methyl-3-((5-(trifluoromethyl)pyridin-2-yl)amino)piperidin-1-yl)methanone], for which the Ki on rat orexin 1 receptor was 4500 nM; on human orexin 2 receptor, > 10000 nM.

Turning to `Cc1cc(C)nc(N[C@@H]2CCCN(C(=O)c3cc(F)ccc3-n3nccn3)[C@H]2C)n1` (racemic) [Example 5, (±)-trans-(3-((4,6-dimethylpyrimidin-2-yl)amino)-2-methylpiperidin-1-yl)(5-fluoro-2-(2H-1,2,3-triazol-2-yl)phenyl)methanone], the Ki was 116 nM on human orexin 2 receptor and 560 nM at human orexin 1 receptor.

As for `CCOc1ccccc1C(=O)N1CCC[C@@H](Nc2ccc(Br)cn2)[C@H]1C` (racemic) [Example 59, (±)-cis-(3-(5-bromopyridin-2-yl)amino)-2-methylpiperidin-1-yl)(2-ethoxyphenyl)methanone], the Ki was 1800 nM on rat orexin 1 receptor and > 10000 nM on human orexin 2 receptor.

For `Cc1cc(C)nc(N[C@@H]2CCCN(C(=O)c3c(F)cccc3-c3ncccn3)[C@H]2C)n1` (racemic) [Example 2, (±)-trans-(3-((4,6-dimethylpyrimidin-2-yl)amino)-2-methylpiperidin-1-yl)(2-fluoro-6-(pyrimidin-2-yl)phenyl)methanone], the Ki on human orexin 2 receptor was 217 nM; at human orexin 1 receptor it was 400 nM.

Consider `COc1c(F)cccc1C(=O)N1CCC[C@@H](Nc2nc3cc(Cl)ccc3o2)[C@H]1C` (racemic) [Example 62, (±)-cis-(3-((5-chlorobenzo[d]oxazol-2-yl)amino)-2-methylpiperidin-1-yl)(3-fluoro-2-methoxyphenyl)methanone], for which the Ki at rat orexin 1 receptor came to 1800 nM; on human orexin 2 receptor, 5700 nM.

For `C[C@H]1[C@H](Nc2ccc(F)cn2)CCCN1C(=O)c1ccccc1-n1nccn1` [Example 34, (2-(2H-1,2,3-triazol-2-yl)phenyl)((2S,3R)-3-((5-fluoropyridin-2-yl)amino)-2-methylpiperidin-1-yl)methanone], the Ki was found to be 355 nM on rat orexin 1 receptor and 700 nM at human orexin 2 receptor.
